Earlier results, collected in patent publication US20220023306A1, “USE OF A PPAR-DELTA AGONIST IN THE TREATMENT OF FATTY ACID OXIDATION DISORDERS (FAOD)” (Reneo Pharmaceuticals, Inc., priority 2019, published 2022).
Read-outs that look alike come from different tables or passages of the source.

Columns and labels:
VLCAD = VLCAD deficient cell line FB833; cited from earlier work
[1] = tested on: fibroblasts derived from patients with VLCAD, LCHAD and TFP deficiencies; conditions: cited from earlier work
CPT2 = conditions: cultured patient fibroblasts carrying mild mutations of the CPT2 gene; cited from earlier work
CPT2-deficient myoblasts = conditions: cited from earlier work; for FAO: CPT2-deficient myoblasts
control myoblasts = conditions: cited from earlier work

For Cc1cc(SCc2sc(-c3ccc(C(F)(F)F)cc3)nc2C)ccc1OCC(=O)O [GW501516, 2-[2-Methyl-4-[[[4-methyl-2-[4-(trifluoromethyl)phenyl]-5-thiazolyl]methyl]thio]phenoxy]acetic acid], the VLCAD enzyme activity (VLCAD) is given as “increase”.

For Cc1cnc(-c2ccc(C(F)(F)F)cc2)n1Cc1ccccc1OCCC[C@@H](C)CC(=O)O [MA-0211], the fatty acid oxidation ([1]; fibroblasts from patients with LCHAD deficiency) is given as “improvements”, the fatty acid oxidation ([1]; fibroblasts from patients with TFP deficiency) is given as “improvements” and the fatty acid oxidation ([1]; fibroblasts from patients with VLCAD deficiency) is given as “improvements”.

In the case of Cc1cc(SCc2sc(-c3ccc(C(F)(F)F)c(F)c3)nc2C)ccc1OCC(=O)O [GW0742, [4-[[[2-[3-Fluoro-4-(trifluoromethyl)phenyl]-4-methyl-5-thiazolyl]methyl]thio]-2-methylphenoxy]acetic acid], the VLCAD enzyme activity (VLCAD) is given as “increase”.

In the case of CCCc1c(OCCCOc2ccc(OCC(=O)O)cc2)ccc(C(C)=O)c1O [L-165,0411, [4-[3-(4-Acetyl-3-hydroxy-2-propylphenoxy)propoxy]phenoxy]acetic acid], the VLCAD enzyme activity (VLCAD) is listed as “increase”.

For CC(C)(Oc1ccc(CCNC(=O)c2ccc(Cl)cc2)cc1)C(=O)O [bezafibrate, 2-(4-{2-[(4-Chlorobenzoyl)amino]ethyl}phenoxy)-2-methylpropanoic acid], the “enhancement of deficient enzyme (CPT2)” value (CPT2) is listed as “enhancement” and the FAO (CPT2-deficient myoblasts) is listed as “restore”.

In the case of Cc1cc(SCc2sc(-c3ccc(C(F)(F)F)c(F)c3)nc2C)ccc1OCC(=O)O [GW 072], the long-chain acylcarnitine production (CPT2-deficient myoblasts; CPT2-deficient cells) is listed as “normalized”, the “residual CPT2 activity” value (CPT2-deficient myoblasts; CPT2-deficient cells) is listed as “increased” and the FAO (CPT2-deficient myoblasts) is listed as “restore”. The FAO (control myoblasts) was “stimulated”.

In the case of CC(C)(Sc1ccc(CCN(CCCCC2CCCCC2)C(=O)NC2CCCCC2)cc1)C(=O)O [GW 7647], the FAO (CPT2-deficient myoblasts) is given as “no effect”.
